The results in this text go back to publication PMC9574050, “Design, synthesis, and insecticidal activity of a novel series of flupyrimin analogs bearing 1-aryl-1H-pyrazol-4-yl subunits” (Frontiers in Chemistry, 2022).

The mortality is the share of the test organisms that died.

Format in all cases: in vivo
For one experiment, the system named is Aphis craccivora. In words: Insecticidal activity against Aphis craccivora (Potter spray tower). The following applies: 400 μg/mL, counted 24 h later, read-out: Mortality rate (%) A. craccivora. The method, then: (§1) Preparation of test agent. Dissolve accurately weighed tested compound in DMF to prepare 1% mother liquor, and then dilute it with distilled water containing 0.1% Tween-80 to corresponding concentrations for later use.
Insecticidal activity against Aphis craccivora ([Liu et al., 2022]). About 30 nymphs of alfalfa aphid were placed on a horsebean leaf dish, and then 2.5 ml of the tested agent was sprayed with Potter spray tower. After treatment, they were cultured in an observation room at 20–22°C. The result was counted 24 h later, and the no-response insect body when it was lightly touched with tweezers was regarded as dead. Each treatment was repeated three times, and DMF without the tested compound was used as a blank control.
(§2) The insecticidal activities of the test compounds against the abovementioned five insects were calculated by the following formula: P1=(K/N)×100, (1) P2=(Pt−P0)/(1−P0)×100, (2) where P1 is the mortality rate; K is the dead insect number; N is the total number of experimental insects; P2 is the corrected mortality rate; Pt is the mortality rate of treatment; P0 is the mortality rate of CK. If the mortality rate of CK is less than 5%, without the required correction, and if the mortality rate of CK is between 5 and 20%, P2 should be calculated according to formula II.

The subject of a further experiment is Nilaparvata lugens. Description: Insecticidal activity against Nilaparvata lugens (Potter spray tower). The following applies: 24 h, 3rd instar nymphae, 1 day after treatment, read-out: Mortality rate (%) N. lugens; for mortality at 400 µg/mL: 400 μg/mL; for mortality at 100 µg/mL: 100 μg/mL.
Source text: as §1
Insecticidal activity against Nilaparvata lugens ([Ghareeb et al., 2021]). The seedlings with two leaves and one heart were placed in a Petri dish with a bottom diameter of 3 cm and covered with white sand. After the 3rd instar nymphae of N. lugens were stunned by CO2, about 15 nymphae were received in each dish, and then 2.5 ml of the tested agent was sprayed with Potter spray tower. The mortality of N. lugens was investigated 1 day after the treatment. Each treatment was repeated three times, and DMF without the tested compound was used as a blank control.
as §2

A further experiment relates to Plutella xylostella. In words: Insecticidal activity against Plutella xylostella (soaking method). Particulars: Plutella xylostella, 48 h, 2nd instar larvae, counted 2 days later, read-out: Mortality rate (%) P. xylostella; for mortality at 400 µg/mL: 400 μg/mL; for mortality at 25 µg/mL: 25 μg/mL; for mortality at 100 µg/mL: 100 μg/mL.
Source text: as §1
Insecticidal activity against Plutella xylostella ([Yang et al., 2021]). The soaking method was adopted. After soaking a proper amount of radish leaves for 10 s, it was placed in a plastic Petri dish with filter paper and dried naturally in the shade. Each dish was inoculated with 10 2nd instar P. xylostella larvae and placed in an observation room at 22°C with light (16/8 h). The result was counted 2 days later, and the no-response insect body when it was lightly touched with a brush was regarded as dead. Each treatment was repeated three times, and DMF without the tested compound was used as a blank control.
as §2

A further experiment concerns Chilo suppressalis. In words: Insecticidal activity against Chilo suppressalis (soaking method). The following applies: 96 h, 3rd instar larvae, counted 4 days later, read-out: Mortality rate (%) C. suppressalis; for mortality at 400 µg/mL: 400 μg/mL.
Source text: as §1
Insecticidal activity against Chilo suppressalis ([Huang et al., 2022]). The soaking method was adopted. The Zizania latifolia slices were soaked in a tested solution for 10 s, then taken out, and placed in a plastic Petri dish with filter paper to naturally dry in the shade. […] The result was counted 4 days later, and the no-response insect body when it was lightly touched with a brush was regarded as dead. Each treatment was repeated three times, and DMF without the tested compound was used as a blank control.
as §2

The test system of the next experiment is Helicoverpa armigera. In words: Insecticidal activity against Helicoverpa armigera (soaking method). The following applies: Helicoverpa armigera, 48 h; 400 μg/mL; 2nd instar larvae; counted 2 days later; read-out: Mortality rate (%) H. armigera.
Source text: as §1
Insecticidal activity against Helicoverpa armigera. The soaking method was adopted ([Yang et al., 2022]). After soaking a proper amount of corn leaves for 10 s, they were placed in a plastic Petri dish with filter paper and dried naturally in the shade. Ten larvae of the 2nd instar H. armigera were attached to each dish and placed in an observation room at 26°C with light (16/8 h). The result was counted 2 days later, and the no-response insect body when it was lightly touched with a brush was regarded as dead. Each treatment was repeated 3 times, and DMF without the tested compound was used as a blank control.
as §2

Consider `O=C(/N=c1\ccccn1Cc1cnn(-c2cccc(F)c2)c1C(F)(F)F)C(F)(F)C(F)(F)F` [Compound C3, (E)-2,2,3,3,3-pentafluoro-N-(1-((1-(3-fluorophenyl)-5-(trifluoromethyl)-1H-pyrazol-4-yl)methyl)pyridin-2(1H)-ylidene)propanamide], for which the mortality at 400 µg/mL in the experiment with Aphis craccivora turned out to be 0%; in the experiment on Nilaparvata lugens, 0%; in the experiment with Plutella xylostella, 76.7%; in the experiment with Chilo suppressalis, 0%; with Helicoverpa armigera, 0%.
For the compound `Cn1cc(C(=O)/N=c2\ccccn2Cc2cnn(-c3ccccc3Cl)c2C(F)(F)F)c(C(F)F)n1` [Compound D2, (E)-N-(1-((1-(2-chlorophenyl)-5-(trifluoromethyl)-1H-pyrazol-4-yl)methyl)pyridin-2(1H)-ylidene)-3-(difluoromethyl)-1-methyl-1H-pyrazole-4-carboxamide], the mortality at 400 µg/mL in the experiment with Aphis craccivora stood at 0%; in the experiment with Nilaparvata lugens, 0%; in the experiment on Plutella xylostella, 43.3%; in the experiment with Chilo suppressalis, 0%; in the experiment with Helicoverpa armigera, 0%.
Take `O=C(/N=c1\ccccn1Cc1cnn(-c2ccccc2Cl)c1C(F)(F)F)C(F)(F)C(F)(F)F` [Compound C2, (E)-N-(1-((1-(2-chlorophenyl)-5-(trifluoromethyl)-1H-pyrazol-4-yl)methyl)pyridin-2(1H)-ylidene)-2,2,3,3,3-pentafluoropropanamide]: the mortality at 400 µg/mL in the experiment with Aphis craccivora, with Nilaparvata lugens, with Plutella xylostella, in the experiment with Chilo suppressalis and in the experiment on Helicoverpa armigera was 0% in each case.
As to `Cn1cc(C(=O)/N=c2\ccccn2Cc2cnn(-c3ccc(Cl)cc3)c2C(F)(F)F)c(C(F)F)n1` [Compound D4, (E)-N-(1-((1-(4-chlorophenyl)-5-(trifluoromethyl)-1H-pyrazol-4-yl)methyl)pyridin-2(1H)-ylidene)-3-(difluoromethyl)-1-methyl-1H-pyrazole-4-carboxamide], the mortality at 400 µg/mL came to 0% in the experiment with Aphis craccivora; 0% in the experiment on Nilaparvata lugens; 100% in the experiment on Plutella xylostella; 0% with Chilo suppressalis; 0% in the experiment on Helicoverpa armigera. Besides, the mortality at 25 µg/mL with Plutella xylostella turned out to be 6.7%. Besides, the mortality at 100 µg/mL with Plutella xylostella was 60%.
For `COCC(=O)/N=c1\ccccn1Cc1cnn(-c2cccc(F)c2)c1C(F)F` [Compound B7, (E)-N-(1-((5-(difluoromethyl)-1-(3-fluorophenyl)-1H-pyrazol-4-yl)methyl)pyridin-2(1H)-ylidene)-2-methoxyacetamide], the mortality at 400 µg/mL stood at 0% in the experiment on Aphis craccivora; 0% with Nilaparvata lugens; 66.7% in the experiment with Plutella xylostella; 0% with Chilo suppressalis; 0% with Helicoverpa armigera.
With `O=C(/N=c1\ccccn1Cc1cnn(-c2cccc(F)c2)c1C(F)F)C(F)(F)C(F)(F)F` [Compound C7, (E)-N-(1-((5-(difluoromethyl)-1-(3-fluorophenyl)-1H-pyrazol-4-yl)methyl)pyridin-2(1H)-ylidene)-2,2,3,3,3-pentafluoropropanamide], the mortality at 400 µg/mL with Aphis craccivora was 0%; with Nilaparvata lugens, 0%; in the experiment with Plutella xylostella, 66.7%; in the experiment with Chilo suppressalis, 40%; in the experiment with Helicoverpa armigera, 0%.
As for `Cn1cc(C(=O)/N=c2\ccccn2Cc2cnn(-c3cccc(Cl)c3)c2C(F)F)c(C(F)F)n1` [Compound D6, (E)-N-(1-((1-(3-chlorophenyl)-5-(difluoromethyl)-1H-pyrazol-4-yl)methyl)pyridin-2(1H)-ylidene)-3-(difluoromethyl)-1-methyl-1H-pyrazole-4-carboxamide], the mortality at 400 µg/mL amounted to 0% with Aphis craccivora; 100% in the experiment with Nilaparvata lugens; 100% in the experiment with Plutella xylostella; 0% with Chilo suppressalis; 0% with Helicoverpa armigera. Moreover, the mortality at 100 µg/mL worked out at 0% with Nilaparvata lugens and 100% in the experiment with Plutella xylostella. Besides, the mortality at 25 µg/mL in the experiment with Plutella xylostella amounted to 56.7%.
For the compound `COCC(=O)/N=c1\ccccn1Cc1cnn(-c2ccc(C(F)(F)F)cc2)c1C(F)(F)F` [Compound B5, (E)-2-methoxy-N-(1-((5-(trifluoromethyl)-1-(4-(trifluoromethyl)phenyl)-1H-pyrazol-4-yl)methyl)pyridin-2(1H)-ylidene)acetamide], the mortality at 400 µg/mL with Aphis craccivora is 0%; with Nilaparvata lugens, 0%; with Plutella xylostella, 100%; in the experiment with Chilo suppressalis it was 0%; with Helicoverpa armigera, 0%. For the same compound, the mortality at 25 µg/mL with Plutella xylostella was 0%. In addition, the mortality at 100 µg/mL in the experiment on Plutella xylostella was 100%.
Turning to `O=C(/N=c1\ccccn1Cc1cnn(-c2ccc(Cl)cc2)c1C(F)(F)F)C(F)(F)F` [Compound A4, (E)-N-(1-((1-(4-chlorophenyl)-5-(trifluoromethyl)-1H-pyrazol-4-yl)methyl)pyridin-2(1H)-ylidene)-2,2,2-trifluoroacetamide], the mortality at 400 µg/mL in the experiment with Aphis craccivora, with Nilaparvata lugens, in the experiment with Plutella xylostella, with Chilo suppressalis and in the experiment with Helicoverpa armigera was 0% each time.
On to `O=C(/N=c1\ccccn1Cc1cnn(-c2cccc(Cl)c2)c1C(F)F)C(F)(F)F` [Compound A6, (E)-N-(1-((1-(3-chlorophenyl)-5-(difluoromethyl)-1H-pyrazol-4-yl)methyl)pyridin-2(1H)-ylidene)-2,2,2-trifluoroacetamide], for which the mortality at 400 µg/mL was found to be 0% in the experiment with Aphis craccivora; 100% with Nilaparvata lugens; 50% with Plutella xylostella; 0% in the experiment with Chilo suppressalis; 0% with Helicoverpa armigera. Also, in the experiment on Nilaparvata lugens, the mortality at 100 µg/mL was 0%.
Turning to `O=C(/N=c1\ccccn1Cc1cnn(-c2ccc(F)cc2)c1C(F)F)C(F)(F)C(F)(F)F` [Compound C8, (E)-N-(1-((5-(difluoromethyl)-1-(4-fluorophenyl)-1H-pyrazol-4-yl)methyl)pyridin-2(1H)-ylidene)-2,2,3,3,3-pentafluoropropanamide], the mortality at 400 µg/mL in the experiment with Aphis craccivora, in the experiment on Nilaparvata lugens, with Chilo suppressalis and in the experiment on Helicoverpa armigera was 0% throughout.
As to `O=C(/N=c1\ccccn1Cc1cnn(-c2ccc(C(F)(F)F)cc2)c1C(F)(F)F)C(F)(F)C(F)(F)F` [Compound C5, (E)-2,2,3,3,3-pentafluoro-N-(1-((5-(trifluoromethyl)-1-(4-(trifluoromethyl)phenyl)-1H-pyrazol-4-yl)methyl)pyridin-2(1H)-ylidene)propanamide], the mortality at 400 µg/mL in the experiment with Aphis craccivora worked out at 0%; in the experiment on Plutella xylostella, 70%; with Chilo suppressalis, 100%; with Helicoverpa armigera, 0%. Also, the mortality at 100 µg/mL with Chilo suppressalis (100 μg/mL) turned out to be 0%.
